Data on 6 sequences can be found in PMC4171664 (Diabetes, 2014).

No end group written: not given here.

This test concerns the target T1, I-A^g7 (Mus musculus, UniProt P04228+Q31135).
T1 sequence (P04228 24-256): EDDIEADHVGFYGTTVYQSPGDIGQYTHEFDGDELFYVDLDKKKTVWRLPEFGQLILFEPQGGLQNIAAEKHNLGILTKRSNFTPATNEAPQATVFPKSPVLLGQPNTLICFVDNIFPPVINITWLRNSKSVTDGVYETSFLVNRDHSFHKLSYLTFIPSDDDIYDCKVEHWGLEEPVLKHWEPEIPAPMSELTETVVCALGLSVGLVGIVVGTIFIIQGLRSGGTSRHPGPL
T1 sequence (Q31135 1-263): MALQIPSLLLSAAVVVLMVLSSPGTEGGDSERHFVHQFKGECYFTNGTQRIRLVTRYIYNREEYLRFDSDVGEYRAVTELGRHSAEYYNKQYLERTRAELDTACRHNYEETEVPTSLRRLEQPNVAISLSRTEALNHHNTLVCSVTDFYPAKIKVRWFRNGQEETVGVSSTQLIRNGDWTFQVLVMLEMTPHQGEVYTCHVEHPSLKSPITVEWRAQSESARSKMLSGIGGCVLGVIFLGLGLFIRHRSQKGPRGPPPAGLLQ
The class given is binding, NOD mouse.
The term IC50 denotes the midpoint of a concentration-inhibition curve. AVDGVISVHSLHIW [292–305] displayed an IC50 of 5.1 µM. This lies in the single-digit micromolar range.

GHVAGSLAILTDAA [91–104] returned an IC50 of 0.6 µM. Against the preceding sequence, the IC50 is about 8.5-fold lower.

In turn, GYNHKDVQANASVR [201–214] showed a half-maximal inhibitory concentration (IC50) of 88.2 µM.

Sequence LTIQIESAADQDPSC [345–359] had a 50% inhibitory concentration (IC50) of 1.1 µM. Against the preceding sequence, the IC50 is about 80-fold lower.

In the case of RTGIAQALSSFDLHS [330–344], 5.7 µM corresponded to half-maximal inhibition (IC50).

Take SVRAAFVHALGDVF [212–225]: the IC50 was 0.6 µM. This IC50 is about 9.5-fold lower than that of the sequence before.
